US11617715B2, “Methods and compositions for modifying the behavior of animals” (Texas Tech University System, priority 2016, dated 2023)

Test system: dog barking and jumping
Assay: Teaser dog kennel test of dog barking and jumping
Assay type: in vivo
Settings: kennel dogs with teaser dog; for effectiveness in reducing barking and jumping (Quinoline compared to Androstenone): Study 3
Protocol: The efficacy of Quinoline was tested in three studies conducted to determine if Quinoline would reduce dog barking and jumping. The composition used in the experiments comprised approximately 4 micrograms per milliliter of Quinoline.
The basic parameters of the test involved walking a teaser dog in the center aisle of a dog kennel with test dogs on either side in kennels. The kennels were chain-linked fence with concrete floors. The researchers walked a teaser dog down the aisle and recorded dogs jumping and barking over a two minute period.
In the first study, three treatments were evaluated. Treatment 1 represented no treatment of any kind. The teaser animal simply stood at the test subjects' kennel.
Treatment 2 represented a control treatment. In this case, the delivery vehicle (isopropyl alcohol) spray was administered without Quinoline.
In treatment 3, Quinoline was administered to the test subject animals.
In study 2, the efficacy of Quinoline alone was tested. Test 2 was conducted a week after test 1. The same procedure was used in study 2 except that the test animals were only subject to the delivery of Quinoline.
In study 3, Quinoline was compared to Androstenone (the compound described in U.S. Pat. No. 9,044,395). Again, the same procedures were used in study 3; the test animals were subject to Quinoline and Androstenone.

[1] = Study 1, treatment 3, Quinoline approximately 4 micrograms per milliliter, spray
[2] = Study 2, Quinoline alone, a week after study 1

## C[C@]12CCC(=O)C[C@@H]1CC[C@@H]1[C@@H]2CC[C@]2(C)C=CC[C@@H]12 [Androstenone, reference compound]
  effectiveness in reducing barking and jumping (Quinoline compared to Androstenone): approximately equivalently effective

## c1ccc2ncccc2c1 [Quinoline]
[1]
  reduced barking: 80%
  reduced jumping: 90%
[2]
  reduced barking: 100%
  reduced jumping: 90%
  effectiveness in reducing barking and jumping (Quinoline compared to Androstenone): approximately equivalently effective
